Measured values: US11498899B2, “Nitrone herbicides” (FMC Corporation, priority 2016, dated 2022)

Assays:
[1] = test system: barnyardgrass (Echinochloa crus-galli); test: Test A preemergence, visual injury rating 0-100 (0 no effect, 100 complete control); format: in vivo; conditions: for Barnyardgrass plant response rating (0 to 100 scale): 125 g ai/ha; for Barnyardgrass plant response rating: 500 g ai/ha, 0 to 100 scale
Text: (§1) Seeds of plant species selected from barnyardgrass (Echinochloa crus-galli), kochia (Kochia scoparia), ragweed (common ragweed, Ambrosia elatior), ryegrass, Italian (Italian ryegrass, Lolium multiflorum), foxtail, giant (giant foxtail, Setaria faberii), foxtail, green (green foxtail, Setaria viridis), and pigweed (Amaranthus retroflexus) were planted into a blend of loam soil and sand and treated preemergence with a directed soil spray using test chemicals formulated in a non-phytotoxic solvent mixture which included a surfactant.
(§2) At the same time, plants selected from these weed species and also wheat (Triticum aestivum), corn (Zea mays), blackgrass (Alopecurus myosuroides), and galium (catchweed bedstraw, Galium aparine) were planted in pots containing the same blend of loam soil and sand and treated with postemergence applications of test chemicals formulated in the same manner. Plants ranged in height from 2 to 10 cm and were in the one- to two-leaf stage for the postemergence treatment. Treated plants and untreated controls were maintained in a greenhouse for approximately 10 days, after which time all treated plants were compared to untreated controls and visually evaluated for injury. […] A dash (-) response means no test result.

[2] = test system: foxtail, giant (giant foxtail, Setaria faberii); test: Test A preemergence, visual injury rating 0-100; format: in vivo; conditions: for Foxtail, Giant plant response rating (0 to 100 scale): 125 g ai/ha; for Foxtail, Giant plant response rating: 500 g ai/ha, 0 to 100 scale
Text: as §1, §2

kochia (Kochia scoparia) [3] = test: Test A preemergence, visual injury rating 0-100; format: in vivo; conditions: for Kochia plant response rating (0 to 100 scale): 125 g ai/ha; for Kochia plant response rating: 500 g ai/ha, 0 to 100 scale
Text: as §1, §2

[4] = test system: pigweed (Amaranthus retroflexus); test: Test A preemergence, visual injury rating 0-100; format: in vivo; conditions: for Pigweed plant response rating (0 to 100 scale): 125 g ai/ha; for Pigweed plant response rating: 500 g ai/ha, 0 to 100 scale
Text: as §1, §2

[5] = test system: ragweed (common ragweed, Ambrosia elatior); test: Test A preemergence, visual injury rating 0-100; format: in vivo; conditions: for Ragweed plant response rating (0 to 100 scale): 125 g ai/ha; for Ragweed plant response rating: 500 g ai/ha, 0 to 100 scale
Text: as §1, §2

[6] = test system: ryegrass, Italian (Italian ryegrass, Lolium multiflorum); test: Test A preemergence, visual injury rating 0-100; format: in vivo; conditions: for Ryegrass, Italian plant response rating (0 to 100 scale): 125 g ai/ha; for Ryegrass, Italian plant response rating: 500 g ai/ha, 0 to 100 scale
Text: as §1, §2

[7] = test system: barnyardgrass (Echinochloa crus-galli); test: Test A postemergence, visual injury rating 0-100; format: in vivo; conditions: 0 to 100 scale
Text: as §1, §2

[8] = test system: blackgrass (Alopecurus myosuroides); test: Test A postemergence, visual injury rating 0-100; format: in vivo; conditions: 0 to 100 scale
Text: as §1, §2

corn (Zea mays) = test: Test A postemergence, visual injury rating 0-100; format: in vivo; conditions: 0 to 100 scale
Text: as §1, §2

[9] = test system: foxtail, giant (giant foxtail, Setaria faberii); test: Test A postemergence, visual injury rating 0-100; format: in vivo; conditions: 0 to 100 scale
Text: as §1, §2

[10] = test system: galium (catchweed bedstraw, Galium aparine); test: Test A postemergence, visual injury rating 0-100; format: in vivo; conditions: 0 to 100 scale
Text: as §1, §2

kochia (Kochia scoparia) [11] = test: Test A postemergence, visual injury rating 0-100; format: in vivo; conditions: 0 to 100 scale
Text: as §1, §2

[12] = test system: pigweed (Amaranthus retroflexus); test: Test A postemergence, visual injury rating 0-100; format: in vivo; conditions: 0 to 100 scale
Text: as §1, §2

[13] = test system: ragweed (common ragweed, Ambrosia elatior); test: Test A postemergence, visual injury rating 0-100; format: in vivo; conditions: 0 to 100 scale
Text: as §1, §2

[14] = test system: ryegrass, Italian (Italian ryegrass, Lolium multiflorum); test: Test A postemergence, visual injury rating 0-100; format: in vivo; conditions: 0 to 100 scale
Text: as §1, §2

[15] = test system: wheat (Triticum aestivum); test: Test A postemergence, visual injury rating 0-100; format: in vivo; conditions: 0 to 100 scale
Text: as §1, §2

[16] = test system: ducksalad (Heteranthera limosa); test: Test B flooded paddy test, visual rating 0-100; conditions: Flood, 250 g ai/ha, applied to paddy water, rated after 13 to 15 days
[17] = test system: barnyardgrass (Echinochloa crus-galli); test: Test B flooded paddy test, visual rating 0-100; conditions: Flood, 250 g ai/ha, applied to paddy water, rated after 13 to 15 days
rice (Oryza sativa) = test: Test B flooded paddy test, visual rating 0-100 (0 no effect, 100 complete control); conditions: Flood, 250 g ai/ha, applied to paddy water, rated after 13 to 15 days

| Structure (SMILES) | Barnyardgrass plant response rating (0 to 100 scale) [1] | Barnyardgrass plant response rating [1] | Foxtail, Giant plant response rating (0 to 100 scale) [2] | Foxtail, Giant plant response rating [2] | Kochia plant response rating (0 to 100 scale) (kochia (Kochia scoparia) [3]) | Kochia plant response rating (kochia (Kochia scoparia) [3]) | Pigweed plant response rating (0 to 100 scale) [4] | Pigweed plant response rating [4] | Ragweed plant response rating (0 to 100 scale) [5] | Ragweed plant response rating [5] | Ryegrass, Italian plant response rating (0 to 100 scale) [6] | Ryegrass, Italian plant response rating [6] | Barnyardgrass plant response rating ([7]; 125 g ai/ha) | Barnyardgrass plant response rating ([7]; 500 g ai/ha) | Blackgrass plant response rating ([8]; 125 g ai/ha) | Blackgrass plant response rating ([8]; 500 g ai/ha) | Corn plant response rating (corn (Zea mays); 125 g ai/ha) | Corn plant response rating (corn (Zea mays); 500 g ai/ha) | Foxtail, Giant plant response rating ([9]; 125 g ai/ha) | Foxtail, Giant plant response rating ([9]; 500 g ai/ha) | further results |
| --- | --- | --- | --- | --- | --- | --- | --- | --- | --- | --- | --- | --- | --- | --- | --- | --- | --- | --- | --- | --- | --- |
| CC1=[N+]([O-])C(C(=O)Nc2cccc(F)c2F)C(c2c(F)cccc2Cl)C1 (racemic) [Compound 14] | 0 | 0 | 0 | 0 | 0 | 0 | 0 | 0 | 0 | 0 | 0 | 0 | 0 | 0 | 0 | 0 | 0 | 0 | 0 | 0 | Galium plant response rating ([10]; 125 g ai/ha): 0; Galium plant response rating ([10]; 500 g ai/ha): 0; Kochia plant response rating (kochia (Kochia scoparia) [11]; 125 g ai/ha): 0; Kochia plant response rating (kochia (Kochia scoparia) [11]; 500 g ai/ha): 0; Pigweed plant response rating ([12]; 125 g ai/ha): 0; Pigweed plant response rating ([12]; 500 g ai/ha): 0; Ragweed plant response rating ([13]; 125 g ai/ha): 0; Ragweed plant response rating ([13]; 500 g ai/ha): 0; Ryegrass, Italian plant response rating ([14]; 125 g ai/ha): 0; Ryegrass, Italian plant response rating ([14]; 500 g ai/ha): 0; Wheat plant response rating ([15]; 125 g ai/ha): 0; Wheat plant response rating ([15]; 500 g ai/ha): 0; Ducksalad plant response rating (0 to 100 scale) [16]: 20; Barnyardgrass plant response rating (0 to 100 scale) [17]: 40; Rice plant response rating (0 to 100 scale) (rice (Oryza sativa)): 0 |
| CC1=[N+]([O-])C(C(=O)Nc2cccc(F)c2F)C(c2cccc(C)c2)C1 (racemic) [Compound 15] | 100 | 100 | 100 | 100 | 0 | 30 | 0 | 0 | 0 | 90 | 0 | 50 | 90 | 90 | 0 | 30 | 60 | 90 | 80 | 90 | Galium plant response rating ([10]; 125 g ai/ha): 0; Galium plant response rating ([10]; 500 g ai/ha): 30; Kochia plant response rating (kochia (Kochia scoparia) [11]; 125 g ai/ha): 0; Kochia plant response rating (kochia (Kochia scoparia) [11]; 500 g ai/ha): 30; Pigweed plant response rating ([12]; 125 g ai/ha): 0; Pigweed plant response rating ([12]; 500 g ai/ha): 40; Ragweed plant response rating ([13]; 125 g ai/ha): 0; Ragweed plant response rating ([13]; 500 g ai/ha): 50; Ryegrass, Italian plant response rating ([14]; 125 g ai/ha): 30; Ryegrass, Italian plant response rating ([14]; 500 g ai/ha): 50; Wheat plant response rating ([15]; 125 g ai/ha): 40; Wheat plant response rating ([15]; 500 g ai/ha): 50; Ducksalad plant response rating (0 to 100 scale) [16]: 95; Barnyardgrass plant response rating (0 to 100 scale) [17]: 85; Rice plant response rating (0 to 100 scale) (rice (Oryza sativa)): 15 |
